Measured values published in patent publication EP1013767A1, “Method of screening for agrochemicals” (AMERICAN CYANAMID COMPANY, priority 1998, dated 2000).
“Also recorded” adds a separate entry of the source.

How the values were obtained:
[1] = test system: LOX2:Hv:1; assay: Northern blot analysis of LOX2:Hv:1 mRNA accumulation in primary leaves of barley; assay type: in vivo, Barley (Hordeum vulgare L.); settings: for kinetics of LOX2:Hv:1 transcript accumulation: 45 µM JM compared with 45 µM SA; for accumulation of LOX transcript: barley seedlings, powdery mildew susceptible and mlo-resistant cultivar, DCINA soil drench 10 mg active ingredient/L soil volume, BTH 1 mM spray
Method: (§1) Barley (Hordeum vulgare L.) mlo-resistant cultivar Salome as well as the susceptible cultivars Pallas and Manchuria were grown as described for example by Hause et al., J. Plant Physiol. 150, 127-132 (1997). Inoculation with conidia of Blumeria graminis f. sp. hordei race A6 (Wiberg, Hereditas 77, 89-148 (1974)) were performed at a density of 10 conidia per mm^2 with the primary leaf of seven-days-old seedlings at the onset of the light period.
(§2) Segments of seven-days-old primary leaves were freshly harvested and either floated on water, freshly prepared (±) JM, or Na-salicylate.
(§3) DCINA (2,6-dichloroisonicotinic acid), formulated as 25 % active ingredient with a wettable powder (WP) carrier (Métraux et al., Advances in molecular genetics of plant microbe interactions. Vol. 1, Kluwer Academic Publishers, Dordrecht, The Netherlands, pp. 432-439 (1991)), was applied to 7-days-old barley seedlings as a soil drench at a final concentration of 10 mg active ingredient/L soil volume. BTH (benzo[1,2,3]-thiadiazole-7-carbothioic acid S-methyl ester) was applied at a concentration of 1 mM by spraying a formulation with WP in distilled water. Controls were treated with WP.
Total RNA was extracted as described for example by Hause et al., Plant Cell Physiol. 37, 641-649 (1996). Northern blot analysis was performed with digoxigenin-Iabelled cDNAs (DIG-High Prime labelling Kit, Boehringer Mannheim) of barley LOX2:Hv:1 (Vörös et al., loc. cit) and barley PR1b (Bryngelsson et al., Mol. Plant-Microbe Int. 7, 267-275 (1994)).

[2] = test system: PR1b; assay: Northern blot analysis of PR1b mRNA accumulation in barley; assay type: in vivo, Barley (Hordeum vulgare L.); settings: in response to treatment
Method: as §1, §2, §3
Total RNA was extracted as described for example by Hause et al., Plant Cell Physiol. 37, 641-649 (1996). […]

[3] = test system: PR genes; settings: wheat; cited from earlier work
[4] = test system: powdery mildew fungus; settings: barley, against the powdery mildew fungus; cited from earlier work

SMILES: CCC=CCC1C(=O)CCC1CC(=O)OC (racemic) [JM, jasmonic acid methyl ester]
- kinetics of LOX2:Hv:1 transcript accumulation [1]: No differences
- sensitivity of LOX2:Hv:1 (dose-response curves) ([1]; JM compared with SA treatment, Fig. 1): slightly higher sensitivity
- PR1b mRNA accumulation [2]: not found

SMILES: CSC(=O)c1cccc2nnsc12 [BTH, benzo[1,2,3]-thiadiazole-7-carbothioic acid S-methyl ester]
- accumulation of LOX transcript [1]: accumulation of LOX transcript; also recorded: activate LOX
- LOX2:Hv:1 induction, BTH compared with DCINA ([1]; in all experiments): stronger induced
- PR1b mRNA accumulation [2]: not pathogen related genes like PR1b
- activation of PR genes [3]: strongly activate

SMILES: O=C(O)c1ccccc1O [SA, salicylic acid]
- kinetics of LOX2:Hv:1 transcript accumulation [1]: No differences
- LOX2:Hv:1 expression ([1]; treatment with SA, cultivar Salome, leaf segments, 24 hours (Fig. 1)): induced
- activation of PR genes [3]: strongly activate
- activation of SAR [4]: activated SAR

SMILES: O=C(O)c1cc(Cl)nc(Cl)c1 [DCINA, 2,6-dichloroisonicotinic acid]
- accumulation of LOX transcript [1]: accumulation of LOX transcript
- activation of PR genes [3]: strongly activate
